Among the data in US7994324B2, “2-aminoquinoline derivatives” (Hoffmann-La Roche Inc., priority 2008, dated 2011) are Ki and melting point values, retold here.

In data set [1] the target is T1, recombinant human 5-HT5A receptor (Homo sapiens, UniProt P47898).
T1 construct: expressed in transfected cells; host or cells: HEK-EBNA (Human Embryonic Kidney-EBNA) cells, transient cDNA expression; membranes used
Description: [3H]LSD radioligand binding assay. The following applies: [3H]LSD (approximately 1 nM), membranes from HEK-EBNA cells transiently expressing 5-HT5A receptors; Ki from IC50 by Cheng-Prussoff equation. Here is the method: A [^3H]LSD radioligand binding assay was used to determine the affinity of the compounds for the recombinant human 5-HT5A receptor, in membranes from transiently (cDNA) expressed 5-HT5A receptors in Human Embryonic Kidney-EBNA (HEK-EBNA) cells. Assay buffer consisted of Tris (50 mM) buffer containing 1 mM EGTA, 10 mM MgCl2 (pH 7.4) and 10 μM pargyline. The binding assay was carried out in 96-well-plates in the presence of [^3H]LSD (approximately 1 nM), approximately 2 μg/well of membrane protein, and 0.5 mg of Ysi-poly-1-lysine SPA beads in a final volume of 200 μl of buffer. Non-specific binding was defined using methiothepin 2 μM. Compounds were tested at 10 concentrations. All assays were conducted in duplicate and repeated at least two times. Assay plates were incubated for 120 min at room temperature before centrifugation. Bound ligand was determined using a Packard Topcount scintillation counter. IC50 values were calculated using a non-linear curve fitting program and Ki values calculated using the Cheng-Prussoff equation.

T1 sequence (P47898 whole entry): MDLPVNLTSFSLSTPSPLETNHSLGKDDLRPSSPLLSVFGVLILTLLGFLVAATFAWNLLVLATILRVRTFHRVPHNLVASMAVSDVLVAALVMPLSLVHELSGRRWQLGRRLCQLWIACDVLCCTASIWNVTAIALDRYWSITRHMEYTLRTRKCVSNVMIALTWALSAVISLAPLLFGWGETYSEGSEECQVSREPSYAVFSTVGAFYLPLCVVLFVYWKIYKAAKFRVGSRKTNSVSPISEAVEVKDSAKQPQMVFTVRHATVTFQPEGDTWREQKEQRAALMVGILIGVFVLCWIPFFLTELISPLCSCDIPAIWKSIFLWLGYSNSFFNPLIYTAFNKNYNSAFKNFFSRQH

In the case of `COc1cccc2c1C(Nc1ccc3c(N)cccc3n1)CC2` (racemic) [Example 19, rac-N^2-(7-Methoxy-indan-1-yl)-quinoline-2,5-diamine], the Ki in data set [1] stood at 6.1 nM.

With `COc1cccc2c1C(Nc1ccc3c(NS(=O)(=O)N(C)C)cccc3n1)CC2` (racemic) [Example 20, rac-N′-{2-[(7-methoxy-indan-1-yl)amino]quinolin-5-yl}-N,N-dimethylsulfamide], the Ki in data set [1] stood at 2.3 nM.

Regarding `Nc1cccc2nc(NC3Cc4ccccc4C3)ccc12` (racemic) [Example 23, rac-N^2-Indan-2-yl-quinoline-2,5-diamine], the Ki in data set [1] was found to be 219 nM.

Regarding `Nc1cccc2nc(NC3CCc4cc(F)ccc43)ccc12` (racemic) [Example 37, rac-N^2-[5-Fluoro-indan-1-yl]-quinoline-2,5-diamine], the Ki in data set [1] was determined as 12.5 nM.

For the compound `COc1cccc2c1C(Nc1ccc3c(NCCSC)cccc3n1)CO2` (racemic) [Example 39, rac-N^2-(4-Methoxy-2,3-dihydro-benzofuran-3-yl)-N^5-(2-methylsulfanyl-ethyl)-quinoline-2,5-diamine], the Ki in data set [1] is 25.2 nM.

The compound `COc1cccc2c1C(Nc1ccc3c(NCCS(C)(=O)=O)cccc3n1)CO2` (racemic) [Example 40, N^5-(2-Methanesulfonyl-ethyl)-N^2-(RS)-(4-methoxy-2,3-dihydro-benzofuran-3-yl)-quinoline-2,5-diamine] had a melting point of 188 °C. Further, the Ki in data set [1] is 29.1 nM.

The compound `O=C(Cc1ccc(F)cc1)Nc1cccc2nc(NC3CCc4cc(F)ccc43)ccc12` (racemic) [Example 48, rac-N-[2-(5-Fluoro-indan-1-ylamino)-quinolin-5-yl]-2-(4-fluoro-phenyl)-acetamide] showed a melting point of 187 °C. In addition, in data set [1], the Ki came to 17.6 nM.

`O=C(Cc1cccs1)Nc1cccc2nc(NC3CCc4cc(F)ccc43)ccc12` (racemic) [Example 49, rac-N-[2-(5-Fluoro-indan-1-ylamino)-quinolin-5-yl]-2-thiophen-2-yl-acetamide] came in with a melting point of 184 °C.

Take `O=C(Cc1cc(F)cc(F)c1)Nc1cccc2nc(NC3CCc4cc(F)ccc43)ccc12` (racemic) [Example 50, rac-2-(3,5-Difluoro-phenyl)-N-[2-(5-fluoro-indan-1-ylamino)-quinolin-5-yl]-acetamide]: the melting point turned out to be 203 °C.

In turn, `O=C(Cc1ccc(Cl)cc1)Nc1cccc2nc(NC3CCc4cc(F)ccc43)ccc12` (racemic) [Example 51, rac-2-(4-Chloro-phenyl)-N-[2-(5-fluoro-indan-1-ylamino)-quinolin-5-yl]-acetamide] displayed a melting point of 221 °C. Further, the Ki in data set [1] was 9.4 nM.

With `COc1ccc(CC(=O)Nc2cccc3nc(NC4CCc5cc(F)ccc54)ccc23)cc1` (racemic) [Example 53, rac-N-[2-(5-Fluoro-indan-1-ylamino)-quinolin-5-yl]-2-(4-methoxy-phenyl)-acetamide], the melting point was determined as 192 °C.

As to `COc1cccc2c1C(Nc1ccc3c(NC(=O)Cc4ccc(F)cc4)cccc3n1)CC2` (racemic) [Example 54, rac-2-(4-Fluoro-phenyl)-N-[2-(7-methoxy-indan-1-ylamino)-quinolin-5-yl]-acetamide], the melting point is 195 °C. Further, the Ki in data set [1] is 11 nM.

Turning to `COc1cccc2c1C(Nc1ccc3c(NC(=O)Cc4cccs4)cccc3n1)CC2` (racemic) [Example 55, rac-N-[2-(7-Methoxy-indan-1-ylamino)-quinolin-5-yl]-2-thiophen-2-yl-acetamide], the melting point was 194 °C.

For the compound `COc1cccc2c1C(Nc1ccc3c(NC(=O)Cc4cc(F)cc(F)c4)cccc3n1)CC2` (racemic) [Example 56, rac-2-(3,5-Difluoro-phenyl)-N-[2-(7-methoxy-indan-1-ylamino)-quinolin-5-yl]-acetamide], the melting point turned out to be 248 °C.

`COc1cccc2c1C(Nc1ccc3c(NC(=O)Cc4ccc(Cl)cc4)cccc3n1)CC2` (racemic) [Example 57, rac-2-(4-Chloro-phenyl)-N-[2-(7-methoxy-indan-1-ylamino)-quinolin-5-yl]-acetamide] showed a melting point of 234 °C. Moreover, the Ki in data set [1] was found to be 9.1 nM.

In turn, `COc1ccc(CC(=O)Nc2cccc3nc(NC4CCc5cccc(OC)c54)ccc23)cc1` (racemic) [Example 58, rac-N-[2-(7-Methoxy-indan-1-ylamino)-quinolin-5-yl]-2-(4-methoxy-phenyl)-acetamide] yielded a melting point of 209 °C.

Turning to `CNc1cccc2nc(N[C@@H]3CCc4ccccc43)ccc12` [Example 1, N^2-(R)-Indan-1-yl-N^5-methyl-quinoline-2,5-diamine], the Ki in data set [1] was found to be 22.5 nM.

For `c1ccc2c(c1)CC[C@H]2Nc1ccc2c(NC3CCOCC3)cccc2n1` [Example 3, N^2-(R)-Indan-1-yl-N^5-(tetrahydro-pyran-4-yl)-quinoline-2,5-diamine], in data set [1], the Ki is 26 nM.

Take `c1ccc2c(c1)CC[C@H]2Nc1ccc2c(N3CCOCC3)cccc2n1` [Example 4, (R)-Indan-1-yl-(5-morpholin-4-yl-quinolin-2-yl)-amine]: the Ki in data set [1] is 105 nM.

Turning to `CSCCNc1cccc2nc(N[C@@H]3CCc4ccccc43)ccc12` [Example 5, N^2-(R)-Indan-1-yl-N^5-(2-methylsulfanyl-ethyl)-quinoline-2,5-diamine], in data set [1], the Ki came out at 23.5 nM.

On to `C[S+]([O-])CCNc1cccc2nc(N[C@@H]3CCc4ccccc43)ccc12` (stereo partly drawn) [Example 6, N^2-(R)-Indan-1-yl-N^5-(2-methanesulfinyl-ethyl)-quinoline-2,5-diamine], for which, in data set [1], the Ki turned out to be 26.5 nM.

On to `CS(=O)(=O)CCNc1cccc2nc(N[C@@H]3CCc4ccccc43)ccc12` [Example 7, N^2-(R)-Indan-1-yl-N^5-(2-methanesulfonyl-ethyl)-quinoline-2,5-diamine], for which, in data set [1], the Ki was 24.7 nM.

For `Nc1cccc2nc(N[C@@H]3CCc4ccccc43)ccc12` [Example 16, (R)—N^2-Indan-1-yl-quinoline-2,5-diamine], in data set [1], the Ki was 7.2 nM.

As to `O=S(=O)(Nc1cccc2nc(N[C@@H]3CCc4ccccc43)ccc12)C1CC1` [Example 17, Cyclopropanesulfonic acid[2-((R)-indan-1-ylamino)-quinolin-5-yl]-amide], the Ki in data set [1] turned out to be 32.2 nM.

As to `O=C(Nc1cccc2nc(N[C@@H]3CCc4ccccc43)ccc12)C1CC1` [Example 22, Cyclopropanecarboxylic acid[2-((R)-indan-1-ylamino)-quinolin-5-yl]-amide], the Ki in data set [1] stood at 68 nM.

Regarding `COCCOc1cccc2nc(N[C@@H]3CCc4ccccc43)ccc12` [Example 24, (R)-Indan-1-yl-[5-(2-methoxy-ethoxy)-quinolin-2-yl]-amine], the Ki in data set [1] was determined as 90.6 nM.

`N=C(NO)c1cccc2nc(N[C@@H]3CCc4ccccc43)ccc12` [Example 28, N-Hydroxy-2-((R)-indan-1-ylamino)-quinoline-5-carboxamidine] returned a melting point of 200.5 °C. Also, the Ki in data set [1] turned out to be 17.4 nM.

For `ON=C(c1cccc2nc(N[C@@H]3CCc4ccccc43)ccc12)C1CC1` [Example 31, Cyclopropyl-[2-((R)-indan-1-ylamino)-quinolin-5-yl]-methanone oxime], the melting point was 151 °C. The Ki in data set [1] came to 5.8 nM.

Compound `CN(C)CC(=O)Nc1cccc2nc(N[C@@H]3CCc4ccccc43)ccc12` [Example 32, 2-Dimethylamino-N-[2-((R)-indan-1-ylamino)-quinolin-5-yl]-acetamide] returned a melting point of 153 °C.

`O=C(CN1CCOCC1)Nc1cccc2nc(N[C@@H]3CCc4ccccc43)ccc12` [Example 33, N-[2-((R)-Indan-1-ylamino)-quinolin-5-yl]-2-morpholin-4-yl-acetamide] had a melting point of 179 °C.

As for `O=C(CC1CCOCC1)Nc1cccc2nc(N[C@@H]3CCc4ccccc43)ccc12` [Example 35, N-[2-((R)-Indan-1-ylamino)-quinolin-5-yl]-2-(tetrahydro-pyran-4-yl)-acetamide], the melting point stood at 211 °C.

With `c1ccc2c(c1)CC[C@H]2Nc1ccc2c(C3CC3)cccc2n1` [Example 44, (5-Cyclopropyl-quinolin-2-yl)-(R)-indan-1-yl-amine], the Ki in data set [1] came out at 27.7 nM.

On to `O=C(Cc1ccc(F)cc1)Nc1cccc2nc(N[C@@H]3CCc4ccccc43)ccc12` [Example 45, 2-(4-Fluoro-phenyl)-N-[2-((R)-indan-1-ylamino)-quinolin-5-yl]-acetamide], for which the melting point came to 207 °C. For the same compound, the Ki in data set [1] was 11 nM.

Compound `O=C(Cc1cccs1)Nc1cccc2nc(N[C@@H]3CCc4ccccc43)ccc12` [Example 46, N-[2-((R)-Indan-1-ylamino)-quinolin-5-yl]-2-thiophen-2-yl-acetamide] displayed a melting point of 163.5 °C. The Ki in data set [1] stood at 36.1 nM.

The compound `O=C(Cn1ccnc1)Nc1cccc2nc(N[C@@H]3CCc4ccccc43)ccc12` [Example 47, 2-Imidazol-1-yl-N-[2-((R)-indan-1-ylamino)-quinolin-5-yl]-acetamide] gave a melting point of 226 °C.

`COc1ccc(CC(=O)Nc2cccc3nc(N[C@@H]4CCc5ccccc54)ccc23)cc1` [Example 52, N-[2-((R)-Indan-1-ylamino)-quinolin-5-yl]-2-(4-methoxy-phenyl)-acetamide]: the melting point was 175 °C.
